According to US6486305B1, “METHOD OF MODULATING THE EFFICIENCY OF TRANSLATION TERMINATION AND DEGRADATION OF ABERRANT MRNA INVOLVING A SURVEILLANCE COMPLEX COMPRISING HUMAN UPF1P, EUCARYOTIC RELEASE FACTOR 1 AND EUCARYOTIC RELEASE FACTOR 3” (priority 1998, dated 2002):
“Also recorded” adds a separate entry of the source.

Legend:
[1] = biological target: T1, Upf1p-eRF3 interaction (Saccharomyces cerevisiae, UniProt P30771); experiment: GST-eRF3 pull-down of purified FLAG-Upf1p with immunoblotting; type: binding, yeast; conditions: 1 mM ATP, 1 mM GTP, or 100 μg/ml poly(U) RNA
T1 construct: FLAG (N); made in house; host or cells: GST-eRF3: E. coli BL21(DE3) pLysS with pGEX2T-SUP35
T1 sequence (P30771 1-971): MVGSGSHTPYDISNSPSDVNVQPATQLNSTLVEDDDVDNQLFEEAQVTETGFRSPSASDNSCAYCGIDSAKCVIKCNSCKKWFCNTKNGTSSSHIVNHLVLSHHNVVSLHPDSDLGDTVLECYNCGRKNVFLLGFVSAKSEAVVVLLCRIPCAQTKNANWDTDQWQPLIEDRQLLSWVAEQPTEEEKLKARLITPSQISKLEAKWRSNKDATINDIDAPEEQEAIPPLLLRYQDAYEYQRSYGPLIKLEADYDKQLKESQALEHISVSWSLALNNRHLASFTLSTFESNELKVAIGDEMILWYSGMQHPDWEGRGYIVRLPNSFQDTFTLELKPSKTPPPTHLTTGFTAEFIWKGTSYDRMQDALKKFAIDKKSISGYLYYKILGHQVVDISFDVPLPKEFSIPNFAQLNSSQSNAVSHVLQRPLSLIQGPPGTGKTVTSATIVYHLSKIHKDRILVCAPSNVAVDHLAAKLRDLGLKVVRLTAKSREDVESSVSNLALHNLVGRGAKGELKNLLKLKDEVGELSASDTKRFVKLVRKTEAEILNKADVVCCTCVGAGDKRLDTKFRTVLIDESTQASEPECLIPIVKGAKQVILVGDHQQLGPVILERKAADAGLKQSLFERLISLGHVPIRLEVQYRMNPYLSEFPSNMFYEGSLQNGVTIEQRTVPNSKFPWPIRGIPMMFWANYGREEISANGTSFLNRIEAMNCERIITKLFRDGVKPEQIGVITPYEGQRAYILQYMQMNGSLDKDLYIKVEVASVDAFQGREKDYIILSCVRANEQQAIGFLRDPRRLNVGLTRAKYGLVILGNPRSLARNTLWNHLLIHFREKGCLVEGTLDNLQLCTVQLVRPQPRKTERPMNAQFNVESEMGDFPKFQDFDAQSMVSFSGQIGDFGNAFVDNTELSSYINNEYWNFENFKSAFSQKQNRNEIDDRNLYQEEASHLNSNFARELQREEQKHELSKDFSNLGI
Experimental: (§1) FIGS. 1A-1B. The yeast Upf1 protein interacts specifically with the peptidyl release factors. (1A) GST-eRF1 or GST-eRF3 […] proteins bind specifically to Upf1p in a yeast extract. Cytoplasmic extracts from a yeast strain BJ3505 transformed with either pG-1 (vector) or pG-1FLAGUPF1 (Flag-Upf1p) were prepared in IBTB and incubated with 30 μl GST, GST-eRF1 or GST-eRF3 sepharose-protein complexes. The sepharose-protein complexes were washed 2 times in IBTB (see materials and methods), resuspended in SDS-PAGE loading buffer, separated on an 8% SDS-PAGE gel and immunoblotted using anti-FLAG antibody. (1B) Upf1p interacts directly with both eRF1 and eRF3. Upf1p was purified as described previously (Czaplinski et al. 1995). 200 ng of Upf1p was added to 10 μl of GST, GST-eRF1 or GST-eRF3 sepharose-protein complexes in a total reaction volume of 200 μl in IBTB supplemented with KCl to the final concentration indicated above each lane. After 1 hour at 4° C. sepharose-protein complexes were washed for 3 minutes with 1 ml of IBTB supplemented with KCl to the final concentration indicated above each lane. The purified sepharose-protein complexes were resuspended in SDS-PAGE loading buffer and separated on a 7.5% SDS-PAGE gel and immunoblotted as in (A).
(§2) FIGS. 3A-3B. eRF3 and RNA compete for binding to Upf1p. (3A) Poly(U) RNA prevents Upf1p from binding to eRF3. Reaction mixtures were prepared as described in FIG. 1B, except that binding was performed in TBSTB (TBST with 100 μg/ml BSA) and reaction mixtures contained 1 mM ATP, 1 mM GTP, or 100 μg/ml poly(U) RNA as indicated above each lane. The reaction mixtures were mixed for 1 hour at 4° C. Following mixing, the complexes were washed as in FIG. 1B with TBSTB containing 1 mM ATP, 1 mM GTP, or 100 μg/ml poly(U) RNA as indicated above each lane. […]
(§3) Further, purified Flag-Upf1p with poly(U) RNA was incubated in the presence or absence of ATP. Following incubation, GST-eRF3 was added to the reaction mixtures and the Upf1-eRF3 interaction was monitored by immunoblotting analysis as before.

[2] = system: −1 ribosomal frameshifting; experiment: β-galactosidase assay of −1 ribosomal frameshifting in the presence of paromomycin; type: cell-based, Saccharomyces cerevisiae
Experimental: Cloning of UPF3: The strategy used to clone the UPF3 gene was the same that was used to clone UPF2 (Cui, Y, K. W. Hagan, S. Zhang, and Peltz, S. W. (1995)). […] Killer assays, frameshifting assays and extraction and analysis of total nucleic acids: The killer assay was carried out as previously described (Dinman, J. D., and Wickner, R. B. (1992)) by replica plating colonies onto 4.7 MB plates newly seeded with a lawn of 5×47 killer indicator cells (0.5 ml of a suspension at 1 unit of optical density at 550 nm per ml per plate). After 2 days at 20° C., killer activity was observed as a zone of growth inhibition around the killer colonies. To quantitate loss of killer activity, colonies that had been identified as killer^+ were re-streaked for single colonies and the percentage of killer^+ colonies were determined. The efficiencies of −1 frameshifting were determined as previously described (Cui, Y. Dinman, J. D., and Peltz, S. W. (1996); Dinman, J. D., Ruiz-Echevarria, M. J., Czaplinski, K. and Peltz, S. W. (1 997b)) using the 0-frame control (pTI25) and −1 reporter (pF8) plasmids. […]
The effect of paromomycin on −1 ribosomal frameshifting was analyzed further by β-galactosidase assay using plasmids pF8 (−1 frameshift reporter construct) or pTI25 (zero frame control) in isogenic wild-type and upf3Δ strains. […]

[3] = system: isogenic wild-type and upf3Δ strains; experiment: Paromomycin sensitivity, zone of growth inhibition around a disc on a lawn of cells; type: cell-based, Saccharomyces cerevisiae
Experimental: FIG. 11. Paromomycin sensitivity was monitored in isogenic wild-type and upf3Δ strains by placing a disc containing 1 mg of paromomycin onto a lawn of cells and determining the zone of growth inhibition around the disc.
Paromomycin sensitivity was monitored in isogenic wild-type and upf3Δ strains by placing a disc containing 1 mg of paromomycin onto a lawn of cells and determining the zone of growth inhibition around the disc (FIG. 11).

[4] = biological target: T2, Upf1p-eRF1 interaction (Saccharomyces cerevisiae, UniProt P30771, K436A); experiment: GST-eRF1 pull-down of purified FLAG-Upf1p with immunoblotting; type: binding, yeast; conditions: GST-eRF1, various KCl concentrations
T2 construct: FLAG (N); made in house; host or cells: GST-eRF1: E. coli BL21(DE3) pLysS with pGEX2T-SUP45
Experimental: as §1, with “After 1 hour at 4° C. sepharose-protein complexes were washed for 3 minutes with 1 ml of IBTB supplemented with KCl to the final concentration indicated above each lane. The purified sepharose-protein complexes were resuspended in SDS-PAGE loading buffer and separated on a 7.5% SDS-PAGE gel and immunoblotted as in (A).” left out
Previous results have shown that strains harboring mutations in the conserved lysine residue in position 436 of the Upf1p (K436) result in stabilization of nonsense-containing mRNAs and a nonsense suppression phenotype (Weng et al., 1996a). […] Reaction mixtures containing the K436A form of Upf1p, GST-eRF1 and various KCl concentrations were prepared,and their interaction was monitored as described above.

[5] = biological target: T3, Upf1p-eRF3 interaction (Saccharomyces cerevisiae, UniProt P30771, K436A); experiment: GST-eRF3 pull-down of purified FLAG-Upf1p with immunoblotting; type: binding, yeast; conditions: GST-eRF3
T3 construct: FLAG (N); made in house; host or cells: GST-eRF3: E. coli BL21(DE3) pLysS with pGEX2T-SUP35
Experimental: as §1, §2, §3

Nc1ncnc2c1ncn2[C@@H]1O[C@H](COP(=O)(O)OP(=O)(O)OP(=O)(O)O)[C@@H](O)[C@H]1O [ATP]
Effect on interaction between Upf1p and eRF3 [1]: did not affect the interaction; also recorded: did not prevent association of Upf1p with eRF3

Nc1nc2c(ncn2[C@@H]2O[C@H](COP(=O)(O)OP(=O)(O)OP(=O)(O)O)[C@@H](O)[C@H]2O)c(=O)[nH]1 [GTP]
Effect on interaction between Upf1p and eRF3 [1]: not affected

NC[C@@H]1O[C@H](O[C@H]2[C@@H](O)[C@H](O[C@@H]3[C@@H](O)[C@H](N)C[C@H](N)[C@H]3O[C@H]3O[C@H](CO)[C@@H](O)[C@H](O)[C@H]3N)O[C@@H]2CO)[C@H](N)[C@@H](O)[C@@H]1O [paromomycin]
β-galactosidase activity (−1 frameshift reporter) ([2]; upf3Δ cells carrying pF8, liquid media, different concentrations of the drug): increased continuously with increased concentrations of paromomycin
β-galactosidase activity ([2]; wild-type cells containing pF8, or any strain carrying pTI25 (zero frame control)): unaffected
Paromomycin sensitivity (hypersensitivity) ([3]; upf1Δ or upf2Δ strains): Neither the upf1Δ or upf2Δ strains demonstrate hypersensitivity
Paromomycin sensitivity (zone of growth inhibition) ([3]; upf3Δ strain vs isogenic wild-type, disc containing 1 mg of paromomycin): more sensitive to paromomycin than the isogenic wild-type strain

B1: Upf1K436A: purified K436A form of the Upf1p, mutation of the conserved lysine residue in position 436 (protein, UniProt P30771 1-971, looked up, variant K436A)
ATP-dependent helicase NAM7: MVGSGSHTPYDISNSPSDVNVQPATQLNSTLVEDDDVDNQLFEEAQVTETGFRSPSASDNSCAYCGIDSAKCVIKCNSCKKWFCNTKNGTSSSHIVNHLVLSHHNVVSLHPDSDLGDTVLECYNCGRKNVFLLGFVSAKSEAVVVLLCRIPCAQTKNANWDTDQWQPLIEDRQLLSWVAEQPTEEEKLKARLITPSQISKLEAKWRSNKDATINDIDAPEEQEAIPPLLLRYQDAYEYQRSYGPLIKLEADYDKQLKESQALEHISVSWSLALNNRHLASFTLSTFESNELKVAIGDEMILWYSGMQHPDWEGRGYIVRLPNSFQDTFTLELKPSKTPPPTHLTTGFTAEFIWKGTSYDRMQDALKKFAIDKKSISGYLYYKILGHQVVDISFDVPLPKEFSIPNFAQLNSSQSNAVSHVLQRPLSLIQGPPGTGATVTSATIVYHLSKIHKDRILVCAPSNVAVDHLAAKLRDLGLKVVRLTAKSREDVESSVSNLALHNLVGRGAKGELKNLLKLKDEVGELSASDTKRFVKLVRKTEAEILNKADVVCCTCVGAGDKRLDTKFRTVLIDESTQASEPECLIPIVKGAKQVILVGDHQQLGPVILERKAADAGLKQSLFERLISLGHVPIRLEVQYRMNPYLSEFPSNMFYEGSLQNGVTIEQRTVPNSKFPWPIRGIPMMFWANYGREEISANGTSFLNRIEAMNCERIITKLFRDGVKPEQIGVITPYEGQRAYILQYMQMNGSLDKDLYIKVEVASVDAFQGREKDYIILSCVRANEQQAIGFLRDPRRLNVGLTRAKYGLVILGNPRSLARNTLWNHLLIHFREKGCLVEGTLDNLQLCTVQLVRPQPRKTERPMNAQFNVESEMGDFPKFQDFDAQSMVSFSGQIGDFGNAFVDNTELSSYINNEYWNFENFKSAFSQKQNRNEIDDRNLYQEEASHLNSNFARELQREEQKHELSKDFSNLGI
Reduction of interaction with eRF1 relative to wild-type Upf1 [4]: 4 to 6 fold
Interaction with eRF3 relative to wild-type Upf1p [5]: equivalent affinity as the wild-type Upf1p
